pEC50: −log10 of the molar value.
Legend:
[1] = tested on: HEK293 cells overexpressing APOL1 G2; test: APOL1 G2 HEK293 cell rescue assay (reversal of cell death caused by overexpression of APOL1); format: cell-based; settings: Homo sapiens, HEK293, HEK293 overexpressing APOL1 G2; geometric mean of at least 2 assay runs; † = single assay run
Method in brief: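 Each compound tested in duplicate wells on one plate per run, with values usually the geometric mean across at least two runs on different days, occasionally from one run only. Read-out: concentration giving half-maximal rescue of APOL1 G2 overexpression-induced death of HEK293 cells.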

[2] = tested on: Trypanosoma brucei Lister 427 VSG221 with APOL1 G2 recombinant protein; test: APOL1 G2 trypanosome cell rescue assay (Example B5); format: cell-based; settings: Trypanosoma brucei, 20 h, read-out: APOL1 G2 Trypanosome Rescue EC50, Trypanosoma brucei Lister 427 VSG221 with APOL1 G2 recombinant protein, 20 hours, CellTiter-Glo; geometric mean of at least 2 assay runs; † = single assay run
Method in brief: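 Viability read by CellTiter-Glo luminescence after 20 h co-incubation (37° C, 5% CO2) of 250 trypanosomes/well in modified HMI-9 with test compound (duplicate 11-point, 2-fold dilutions, 0.4% DMSO) and APOL1 protein, […]. Protein: mature residues 28-398, E. coli inclusion-body refolded, tag cleaved, in DDM.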

| Structure (SMILES) | pEC50 [1] | pEC50 [2] |
| --- | --- | --- |
| C[C@]1(O)C[C@@H](N2C(=O)C3(CC3)c3cc(OCCN4CCC5(CC4)C(=O)Nc4ccc(Cl)cc45)cnc32)C1 [Compound 460, 5-chloro-1′-(2-{2′-oxo-1′-[(cis)-3-hydroxy-3-methylcyclobutyl]-1′,2′-dihydrospiro[cyclopropane-1,3′-pyrrolo[2,3-b]pyridin]-5′-yloxy}ethyl)-1,2-dihydrospiro[indole-3,4′-piperidin]-2-one] | 7.27 | 7.27 |
| [2H]C([2H])([2H])[C@]1(O)C[C@@H](N2C(=O)CCc3cc(OCCN4CCC5(CC4)C(=O)Nc4ccc(Cl)cc45)cnc32)C1 [Compound 461, 5-chloro-1′-[2-({7-oxo-8-[(cis)-3-hydroxy-3-(^2H3)methylcyclobutyl]-5,6,7,8-tetrahydro-1,8-naphthyridin-3-yl}oxy)ethyl]-1,2-dihydrospiro[indole-3,4′-piperidin]-2-one] | 7.55 | 7.54 |
| C[C@]1(O)C[C@@H](n2c(=O)[nH]c3cc(OCCN4CCC5(CC4)C(=O)Nc4ccc(Cl)cc45)cc(C(F)(F)F)c32)C1 [Compound 468, 5-chloro-1′-[2-({2-oxo-1-[(cis)-3-hydroxy-3-methylcyclobutyl]-7-(trifluoromethyl)-2,3-dihydro-1H-1,3-benzodiazol-5-yl}oxy)ethyl]-1,2-dihydrospiro[indole-3,4′-piperidin]-2-one] | 8.19 | 8.62 |
| C[C@]1(O)C[C@@H](n2c(=O)[nH]c3cc(OCCN4CCC5(CC4)C(=O)Nc4ccc(C#N)cc45)cc(C(F)(F)F)c32)C1 [Compound 470, 2-oxo-1′-[2-({2-oxo-1-[(cis)-3-hydroxy-3-methylcyclobutyl]-7-(trifluoromethyl)-2,3-dihydro-1H-1,3-benzodiazol-5-yl}oxy)ethyl]-1,2-dihydrospiro[indole-3,4′-piperidine]-5-carbonitrile] | 6.75 | 8.36 |

Source: patent US12344610B2, “APOL1 inhibitors and methods of use” (Maze Therapeutics, Inc., priority 2022, dated 2025)
